# Measured values published in patent US7390790B2, “Ring-substituted diphenylazetidinones, process for their preparation, medicaments comprising these compounds, and their use” (Sanofi-Aventis Deutschland GmbH, priority 2002, dated 2008).
# Test system: cholesterol absorption
# Test: Cholesterol absorption test: uptake of 14C-cholesterol by the liver
# Format: in vivo, mouse
# Conditions: dose at which the uptake of 14C-cholesterol by the liver was halved (50%), based on a control group; peroral test substance immediately prior to 14C-cholesterol test meal; interpolated from dose-effect curve
# Description: Effect of the compounds of the invention on cholesterol absorption and 3H-taurocholic acid excretion using fecal excrement of mice, rats or hamsters
# NMRI mice, Wistar rats, or Golden Syrian hamsters (in groups of n=4-6) were kept in metabolic cages, where they were fed with a standard diet (Altromin, Lage (Lippe)). The afternoon prior to the administration of the radioactive tracers (14C-cholesterol), the feed was removed and the animals were adapted to grates.
# Additionally, the animals were labeled s.c. with 3H-TCA (taurocholic acid) (for example 1 μCi/mouse up to 5 μCi/rat) 24 hours prior to the peroral administration of the test meal (14C-cholesterol in Intralipid® 20, Pharmacia-Upjohn).
# Cholesterol absorption test: 0.25 ml/mouse Intralipid® 20 (Pharmacia-Upjohn) ((spiked with 0.25 μCi of 14C-cholesterol in 0.1 mg of cholesterol) was administered perorally by gavage.
# Test substances were prepared separately in 0.5% methylcellulose (Sigma)/5% Solutol (BASF, Ludwigshafen) or a suitable vehicle.
# The administration volume of the test substance was 0.5 ml/mouse. The test substance was administered immediately prior to the test meal (Intralipid labeled with 14C-cholesterol) (cholesterol absorption test).
# The feces were collected over a period of 24 h. Fecal elimination of 14C-cholesterol and 3H-taurocholic acid (TCA) was determined after 24 hours.
# The livers were removed and homogenized, and aliquots were incinerated in an oximate (Model 307, Packard) to determine the amount of 14C-cholesterol that had been taken up/absorbed.
# The amount of ^14C-cholesterol taken up by the liver was based on the administered dose. The ED50 values were interpolated from a dose-effect curve as the dose at which the uptake of 14C-cholesterol by the liver was halved (50%), based on a control group.
row,Compound,ED50 (liver) [mg/mouse]
1,"COc1ccc(C2C(CCC(O)c3ccc(F)cc3)C(=O)N2c2ccc(CNC(=O)c3ccc(Oc4ccc(C(=O)NCC(O)C(O)C(O)C(O)CO)cc4)cc3)cc2)cc1 (stereo not drawn) [Example I, 2,3,4,5,6-Pentahydroxyhexylamide of 4-(4-{4-[3-[3-(4-fluorophenyl)-3-hydroxypropyl]-2-(4-methoxyphenyl)-4-oxoazetidin-1-yl]benzylcarbamoyl}phenoxy)benzoic acid]",<0.1
2,"O=C(NCc1ccc(N2C(=O)C(CCC(O)c3ccccc3)C2c2ccccc2)cc1)c1ccc(Oc2ccc(C(=O)NCC(O)C(O)C(O)C(O)CO)cc2)cc1 (stereo not drawn) [Example II, 2,3,4,5,6-Pentahydroxyhexylamide of 4-(4-{4-[3-(3-hydroxy-3-phenylpropyl)-2-oxo-4-phenylazetidin-1-yl]benzylcarbamoyl}phenoxy)benzoic acid]",<1.0
3,"O=C1C(CCC(O)c2ccc(F)cc2)C(c2ccc(OCc3ccc(C[N+]45CCN(CC4)CC5)cc3)cc2)N1c1ccc(F)cc1.[Br-] (stereo not drawn) [Example IV, 1-[4-(4-{1-(4-Fluorophenyl)-3-[3-(4-fluorophenyl)-3-hydroxypropyl]-4-oxoazetidin-2-yl}phenoxymethyl)benzyl]-4-aza-1-azoniabicyclo[2.2.2]octane bromide]",<0.1
4,"O=C1C(CCC(O)c2ccc(F)cc2)C(c2ccc(OCc3ccc(CNCC(O)C(O)C(O)C(O)CO)cc3)cc2)N1c1ccc(F)cc1 (stereo not drawn) [Example V, 1-(4-Fluorophenyl)-3-[3-(4-fluorophenyl)-3-hydroxypropyl]-4-(4-{4-[(2,3,4,5,6-pentahydroxyhexylamine)methyl]benzyloxy}phenyl)azetidin-2-one]",<0.1
5,"O=C(Cc1ccc(C[N+]23CCN(CC2)CC3)cc1)NCc1ccc(C2C(CCC(O)c3ccc(F)cc3)C(=O)N2c2ccc(F)cc2)cc1.O=C([O-])C(F)(F)F (stereo not drawn) [Example XV, 1-{4-[(4-{1-(4-Fluorophenyl)-3-[3-(4-fluorophenyl)-3-hydroxypropyl]-4-oxoazetidin-2-yl}-benzylcarbamoyl)-methyl]-benzyl}-4-aza-1-azoniabicyclo[2.2.2]octane trifluoroacetate]",<1.0
6,"O=C1C(CCC(O)c2ccc(F)cc2)C(c2ccc(OCc3cccc(CNCC(O)C(O)C(O)C(O)CO)c3)cc2)N1c1ccc(F)cc1 (stereo not drawn) [IX, 1-(4-Fluorophenyl)-3-[3-(4-fluorophenyl)-3-hydroxypropyl]-4-(4-{3-[(2,3,4,5,6-pentahydroxyhexylamine)methyl]benzyloxy}phenyl)azetidin-2-one]",<0.1
7,"O=C1C(CCC(O)c2ccc(F)cc2)C(c2ccc(OCc3ccccc3C[N+]34CCN(CC3)CC4)cc2)N1c1ccc(F)cc1.[Br-] (stereo not drawn) [VI, 1-[2-(4-{1-(4-Fluorophenyl)-3-[3-(4-fluorophenyl)-3-hydroxypropyl]-4-oxoazetidin-2-yl}phenoxymethyl)benzyl]-4-aza-1-azoniabicyclo[2.2.2]octane bromide]",0.3
8,"O=C1C(CCC(O)c2ccc(F)cc2)C(c2ccc(OCc3ccccc3CNCC(O)C(O)C(O)C(O)CO)cc2)N1c1ccc(F)cc1 (stereo not drawn) [VII, 1-(4-Fluorophenyl)-3-[3-(4-fluorophenyl)-3-hydroxypropyl]-4-(4-{2-[(2,3,4,5,6-pentahydroxyhexylamine)methyl]benzyloxy}phenyl)azetidin-2-one]",<1.0
9,"O=C1C(CCC(O)c2ccc(F)cc2)C(c2ccc(OCc3cccc(C[N+]45CCN(CC4)CC5)c3)cc2)N1c1ccc(F)cc1.[Br-] (stereo not drawn) [VIII, 1-[3-(4-{1-(4-Fluorophenyl)-3-[3-(4-fluorophenyl)-3-hydroxypropyl]-4-oxoazetidin-2-yl}phenoxymethyl)benzyl]-4-aza-1-azoniabicyclo[2.2.2]octane bromide]",<1.0
